Assays:
[1] = system: dopaminergic neurons (TH+ neurons) in primary cultures of ventral mesencephalon; test: Neuroprotection: counting of remaining TH+ neurons in primary cultures of ventral mesencephalon (spontaneous death of dopaminergic neurons); assay type: cell-based; details: Product 10 nM, 8 days culture, rat embryo ventral mesencephalon; untreated control = 100
Experimental: (§1) Dissection. Dissection consists of extracting embryos from the uterus of a rat after fifteen days of gestation. The brain of each embryo is then dissected under magnifying binoculars in order to extract the ventral mesencephalus.
(§2) Seeding. Mesencephalons are grouped in a flask containing 2 mL of L15 medium and then mechanically dissociated (30 repeat operations), 5 mL of L15 medium are added. The suspension is allowed to stand for 8 minutes. The 5 mL float is then recovered in a new flask and the cells are dissociated again (30 repeat operations). 5 mL of L15 is added again and the suspension is left to stand for 8 minutes. The 5 mL float is added to the previous float. The cells thus extracted are then centrifuged for 5 minutes at 1000 rpm^−1. The cell sediment is dissolved in a Neurobasal medium supplemented with 1% of B27, 1% of glutamine and 1% of a mixture of penicillin and streptomycin. The cells are then seeded at an appropriate dilution (0.6 embryos per well in 24-well plates and 0.4 per well in 48-well plates). The cultures are incubated at 37° C. in a wet atmosphere enriched with 5% CO2 in 24-well or 48-well plates.
(§3) Treatment. After 24 hours, two-thirds of the medium in each well is replaced by a new medium enriched with the product to be tested at the appropriate dilution. The medium is replaced in the same way after 4 days of culture.
(§4) Immunohistochemistry. After 8 days culture, the cells are fixed by a solution of 4% formaldehyde and then washed three times with PBS. The cells are then submitted to anti-tyrosine hydroxylase (TH) immunohistochemistry, developed by a secondary antibody coupled to a fluorophore emitting in the red (Cy3).
(§5) Analyses. Neuroprotection is evaluated by counting positive TH neurons with 10 fields per well directly under an inverted fluorescence microscope, reported as a percentage of the untreated control. Experiments are done on three wells per condition. Three independent experiments are done under these conditions. The total neuritic length per cell is calculated using Explora Nova's Neurite Outgrowth software on 60 to 100 neurons photographed independently per condition.
(§6) Primary cultures of ventral mesencephalon of rat embryos after 15.5 days of gestation under conditions causing spontaneous death of dopaminergic neurons, are maintained in the presence or absence of the compounds to be tested for 8 days. After fixing, the cultures are submitted to immunocytochemistry directed against tyrosine hydroxylase, a specific marker of dopaminergic neurons.
The neuroprotective potential of each compound is then estimated by counting the number of remaining neurons (TH^+ neurons) under a fluorescence microscope. The results for the different treatments are expressed as a percentage of the number of neurons remaining relative to untreated cultures (Control).
(§7) All experiments were done by comparison with a positive control, dibutyryl-AMP cyclic (db-AMPc) (Mourlevat S. et al. Mol. Pharmacol. 2003, 64 (3), 578-586).

[2] = system: reactive oxygen species (ROS) in neurones of ventral mesencephalon cultures; test: Cellular test with dihydrorhodamine 123 (DHR-123); assay type: cell-based, rat; details: compounds 10 nM for eight days, 50 μM DHR-123 30 minutes; control = 100; Trolox at 10 μM per FIG. 1
Experimental: Dihydrorhodamine 123 or DHR123 is used as an indicator of reactive oxygen species (ROS). It is uncharged and not fluorescent and passes passively through the cellular membrane before being oxidised in contact with free radicals, into rhodamine 123 emitting green fluorescence.
The quantity of intracellular ROS is reduced when the cells are treated by an anti-oxidant. This reduction results in a quantifiable decay in emitted fluorescence in the presence of DHR123.
In order to conclude the role of the anti-oxidant capacity of compounds according to the invention in the observed neuroprotectrive activity, the cultures were placed strictly under the same conditions as for the neuroprotection/neuritogenesis test. Thus, the cultures were kept for eight days in the presence of a concentration of 10 nM of each of the tested tryptaminic derivatives. On the 8th day in vitro (DIV 8), 50 μM of DHR-123 (Sigma) was added and the cells were incubated for 30 minutes at 37° C. They were then washed three times, treated once again by compounds according to the invention and placed in a medium without any phenol red. Living fluorescent neurones that were immediately photographed can be observed, the fluorescence density per neurone being quantified under an inverted fluorescence microscope by an image analysis software.

[3] = system: dopaminergic neurons (TH+ neurons) in primary cultures of ventral mesencephalon; test: Neuritogenesis: total neuritic length per dopaminergic neuron in primary cultures of ventral mesencephalon; assay type: cell-based; details: Product 10 nM, 8 days culture, rat embryo ventral mesencephalon; untreated control = 100
Experimental: as §1, §2, §3, §4, §5, §6
Neuritogenesis is quantified by measuring the total neuritic length per dopaminergic neuron (neuritic length/TH^+ neuron) using an image analyser on a minimum of sixty photographed neurons per condition (10-30% of all dopaminergic neurons).
as §7

[4] = Test with ABTS (anti-oxidant capacity, hydroxyl radicals generated by Fenton's reaction); assay type: biochemical; details: 30 minutes at ambient temperature, range 10 nM to 1 mM, read-out: IC50 ± SEM (concentration at which 50% of hydroxyl radicals have been reduced) (converted)
Source text: ABTS or 2,2′-azino-bis-(3-ethylbenzthiazoline-6-sulfonic) acid is a coloured indicator of the presence of hydroxyl radicals in solution. The attack of a hydroxyl radical on ABTS generates the formation of an ATBS^+. cation radical (Equation 1). This coloured entity makes the absorbance (Abs) of the solution equal to 450 nm. ABTS+HO. ? ABTS^+. +HO^− Equation 1
During the test, hydroxyl radicals are generated by Fenton's reaction in the presence of iron and hydrogen peroxide (Equation 2) H2O2+Fe^2+ ? HO. +HO^−+Fe^3+ Equation 2
When a radical trap or antioxidant is present in solution, competition with ABTS is set up for reduction of hydroxyl radicals, which reduces the absorbance (Abs) at 450 nm.
The percentage of hydroxyl radicals converted into hydroxyl ions (% conversion) by the compound of interest may be calculated using Formula 1: […]
The anti-oxidant capacity of a compound may then be expressed in the form of IC50 that reflects the concentration at which 50% of hydroxyl radicals have been reduced by the tested compound.
Thus, the compounds to be tested and Trolox® were solubilised in ethanol so as to obtain solutions at 1 mM. We used cascade dilutions to obtain a concentration range varying from 1 mM to 10 nM. 90 μL of a 1:1 water-ethanol mixture was then added onto an ELISA 96-well plate, followed by 15 μL of an aqueous solution of ABTS at 1 mM, 15 μL of an aqueous solution of Fe2SO4 at 0.5 mM, 15 μL of each compound to be tested at different concentrations, and then 15 μl of an aqueous solution of hydrogen peroxide at 100 mM. The mixtures thus obtained were stirred at ambient temperature sheltered from air for 30 minutes, and the value of the absorbance at […] was then measured. The capacity of each compound to reduce hydroxyl radicals is determined by the reduction in absorbance at 450 nm, the control solution being composed of pure ethanol. Therefore, the ABTS test was made in comparison with Trolox®. The same ranges from 10 nm to 1 mM of indoles 1a, 1c, 1g, 1i, 2a, 4c, 2g, 2h and 2i were tested.

Row | Structure (SMILES) | TH+ neurons, % relative to control ± SEM [1] [%] | IF/neurone (%) (fluorescence intensity per neurone) [2] | Neuritic length/TH+ neuron, % relative to control ± SEM [3] [%] | IC50 [4] [µM]
1 | CCCCCCCCCCCCCCCC(=O)NCCc1c[nH]c2ccccc12 [Compound 1c, N-(2-(1H-indol-3-yl)ethyl)hexadecanamide] | 121.3 ± 3.2 | 55.9 ± 3.0 | 168.6 ± 11.5 | –
2 | CCCCCCCCCCCCCCCCCCCC(=O)NCCc1c[nH]c2ccccc12 [Compound 1f, N-(2-(1H-indol-3-yl)ethyl)icosanamide] | 121.8 ± 2.0 | – | 147.4 ± 7.0 | –
3 | O=C(CCCCCCCCCCCCCCO)NCCc1c[nH]c2ccccc12 [Compound 1i, N-(2-(1H-indol-3-yl)ethyl)-15-hydroxypentadecanamide] | – | 56.5 ± 2.7 | – | –
4 | CCCCCCCCCCCCCNCCc1c[nH]c2ccccc12 [Compound 2a, N-(2-(1H-indol-3-yl)ethyl)tridecan-1-amine] | – | – | – | 810 ± 140
5 | CCCCCCCCCCCCCCCCCCNCCc1c[nH]c2ccccc12 [Compound 2e, N-(2-(1H-indol-3-yl)ethyl)octadecan-1-amine] | 129.9 ± 3.5 | – | 157.3 ± 10.3 | –
6 | CCCCCCCCCCCCCCCCCCCCNCCc1c[nH]c2ccccc12 [Compound 2f] | 128.9 ± 3.4 | – | 132.6 ± 6.2 | –
7 | CCCCCCCCCCCCCCCCCCCCCCCNCCc1c[nH]c2ccccc12 [Compound 2g, N-(2-(1 H-indol-3-yl)ethyl)tricosan-1-amine] | 129.6 ± 3.5 | – | 141.2 ± 5.0 | 670
8 | OCCCCCCCCCCCCCCCNCCc1c[nH]c2ccccc12 [Compound 2i, N-(2-(1H-indol-3-yl)ethyl)-15-hydroxypentadecanamine] | 129.4 ± 5.0 | 44.0 ± 3.6 | 160.8 ± 13.8 | 730 ± 10
9 | Cc1c(C)c2c(c(C)c1O)CCC(C)(C(=O)O)O2 (stereo not shown) [Trolox ®, reference compound] | – | 44.0 ± 2.8 | – | 550 ± 20
10 | CCCC(=O)Nc1ncnc2c1ncn2[C@@H]1O[C@@H]2COP(=O)(O)O[C@H]2[C@H]1OC(=O)CCC [db-AMPc, dibutyryl-AMP cyclic, reference compound] | 149.9 ± 3.6 | – | 333.1 ± 8.7 | –
